Data set [1] in a line: Prediction of clearance versus clinical values. As to conditions: proximal tubule Kidney chip.
A further data set in a line: in vitro. The following applies: human. As to the method: (§1) Additional transporter Tier 1 test substrates/substances include but are not limited to: 1. […] TEA; 4. PAH; 5. Estrone-3-sulfate (E3S); 6. Glycylsarcosine. In some embodiments, microfluidic devices are treated with a substance followed by a 30 minute flushing cycle. In some embodiments, microfluidic devices under go 100 ul/hr of flow during transported function measurements.
(§2) Permeability from the vascular (V) to luminal (L) direction (Papp(V−L)) and permeability from the luminal to vascular direction (Papp(L−V)) were determined along with calculating the efflux ratio (Papp(V−L)/PapP(L−V)). […] However, the values were included in the calculations to calculate the efflux ratio.

Another data set has as its system OCT1/MATE1/MATE2-K. The data set can be described thus: in vitro. The following applies: human, Kidney-Chip (Proximal Tubule), probe TEA. The source says:
(§3) Substrates for transporters are termed “victim”.

The test system of a further data set is OCT2/MATE1/MATE2-K. The data set can be described thus: in vitro. As to conditions: human, Kidney-Chip (Proximal Tubule), probe Meformin (so in the source); metformin).
From the text: as §3

For data set [2], the system named is Proximal Tubule Kidney-Chip. The data set can be described thus: Creatinine and PAH secretion/transport in PT Kidney-Chip. It counts as in vitro ADME, human. As to conditions: for mass balance: compound loss (inlet/outlet) in chip system / active transport (B-A versus A-B transport): S1 and HS chips; for active transport (B-A versus A-B transport): Day 8 and Day 15. As to the method: (§4) To measure creatinine secretion in the Proximal Tubule Kidney-Chip, the vascular compartment is perfused with medium containing 1 mg/dL of human creatinine, while the secretion of creatinine in the top channel is measured from chip effluent. Exemplary assay flow rate (Proximal Tubule Kidney-Chip) during this assays is 60 μL/hour. In some embodiments, samples of effluent are collected in outlet reservoirs of the module. In preferred embodiments, there is no dilution of effluent when using an exemplary commercial kit, e.g. Invitrogen™ Creatine Urinary Detection Kit (Thermo Fisher EIACUN as described at thermofisher.com, downloaded Jun. 20, 2019).
(§5) In some embodiments, creatinine transport is determined in relation to chip configuration and low vs. high flow. Creatinine Secretion: Creatinine Loss (BI-BO); Creatinine filtration (TO/BO); Apical Creatinine (TO).
(§6) After activation, S1 (tall channel) chips and high shear chips are coated with Emulate ECM (i.e. Col IV+ Matrigel) on the side of the membrane (typically the top channel) intended for seeding with PT Kidney Cells. For monocultures, proximal tubular cells are seeded into the channel with the ECM coated membrane. For co-culturing PT Kidney Cells (system), glomerular microvascular endothelial cells are seeded on bottom channel and incubated for overnight. The following day, proximal tubular cells are seeded into the top channel (where the membrane is coated with ECM) and cultured for 2 days under static conditions, i.e. no fluid flow. Chips will be connected to a culture module at day 3 along with starting flow at 150 ul/h for both channels. Media should be replenished daily. At day 7, PAH and Creatinine will be dosed Apically under a 150 ul/h flow rate then A to B transport will be measured. Initial collection (after 2 hours) will be discard and during the following 22 hours effluent fluid (media) will be collected at desired times for measurements. At day 8, PAH and Creatinine will then be dosed Basally at 150 ul/h flow rate and B to A transport will be measured. Initial collection during 2 hours will be discarded and over the following 22 hours, the media will be collected for measurement. At day 9, the chip will be return to culture mode and cultured for additional […]. At day 14 PAH and Creatinine will be dosed Apically at 150 ul/h flow rate and A to B transport will be measured. Initial collection (2 hours) will be discard and during the following 22 hours the media will be collected for measurement. At day 15, PAH and Creatinine will be dosed Basally at 150 ul/h flow rate and B to A transport will be measured. Initial collection during 2 hours will be discarded and the following 22 hours, the media will be collected for measurement.

Experiment in data set [3]: as above
In kind it is in vitro ADME, human. The following applies: human, Proximal Tubule Kidney-Chip; read-out: recovery of compound in the chip. On the procedure:
as §4, §5, §6

A short description of data set [4]: Material absorption into Kidney-Chip and perfusion manifold materials. It counts as physicochemical. As to conditions: REGM serum-free medium; 1-72 hr; glass control. The source says:
In some embodiments, Material Absorption is one exemplary readout. When testing compounds added to a PT Kidney Chip, a determination of material absorption is made for that compound. The following is a exemplary method for determining material adsorption of a compound.
Study Conditions. Study approach: Each experiment includes a number of controls and test conditions. These allow us to tease out: Adsorption to the vial/well-plate. Absorption vs. adsorption to the tested material.
• 1. Dissolve the small molecule in an aqueous phase (medium) and incubate it with the tested material. • 2. Measure the concentration of small molecule remaining in the aqueous phase (using mass spec, plate reader). • 3. Curve-fit the measured data to quantify the absorption and diffusion parameters.

Data set [5] has as its system Proximal Tubule Kidney-Chip. The data set is described as follows: Efflux ratio / permeability of probe substrates in Proximal Tubule Kidney-Chip. As to the method:
as §1, §2

In data set [6] the test system is P-gp (digoxin); MATE1/MATE2-K (metformin); OAT1 (PAH). The data set can be described thus: in vitro.
Data set [7] has as its system Transwell kidney cell cultures. The data set can be described thus: Efflux ratio of probe substrates in Transwell cultures. As to conditions: no inhibitor.
In data set [8] the test system is proximal tubular epithelium. The data set can be described thus: Nephrotoxicity testing in Proximal Tubule Kidney-Chip. In kind it is cell-based, human.
Another data set deals with PT Kidney-Chip. The data set can be described thus: Barrier function: inulin leakage in PT Kidney-Chip. In kind it is in vitro ADME, human. The following applies: inulin added to apical channel.

A value given as a limit tells only on which side of the number the result lay.

On to `Nc1ncnc2c1ncn2CCOCP(=O)(O)O` [Adefovir], for which the “predicted clearance value as % of clinical value” in data set [1] is 85%. For the same molecule, in “in vitro” (Kidney-Chip Efflux Ratio), the efflux ratio (usually a quotient of directional permeabilities that is used to spot active efflux) was 2.01.
For the molecule `CN/C(=N/CCSCc1nc[nH]c1C)NC#N` [Cimetidine], the IC50 – broadly, the concentration at which inhibition is half-maximal – turned out to be 3.16 µM with OCT1/MATE1/MATE2-K and 4.41 µM in the data set on OCT2/MATE1/MATE2-K. For the same molecule, the “reduction of PAH secretion” value in [2] (S1 chip, trend, statistically not significant) is 10%.
In the case of `CN1CC(=O)NC1=N` [Creatinine, 2-amino-1-methyl-5H-imadazol-4-one], in data set [2], the “mass balance: compound loss (inlet/outlet) in chip system” value is “No significant creatinine loss” and the “active transport (B-A versus A-B transport)” value is “significant active transport”. For the same molecule, the “Creatinine loss (BI-BO)” value in data set [2] (bottom channel) lay within 2.5 to 4 mM. Also, in data set [2] (low flow), the “creatinine filtration (TO/BO)” value is “About 50%”. Also, in [3], the recovery was about 100%.
For `C[C@H]1O[C@@H](O[C@H]2[C@@H](O)C[C@H](O[C@H]3[C@@H](O)C[C@H](O[C@H]4CC[C@@]5(C)[C@H](CC[C@@H]6[C@@H]5C[C@@H](O)[C@]5(C)[C@@H](C7=CC(=O)OC7)CC[C@]65O)C4)O[C@@H]3C)O[C@@H]2C)C[C@H](O)[C@@H]1O` [Digoxin], the “absorption into system materials (chip material, perfusion manifold material)” value in data set [4] is recorded as “Minimal absorption”.
For `C[C@]12CC[C@@H]3c4ccc(OS(=O)(=O)O)cc4CC[C@H]3[C@@H]1CCC2=O` [Estrone-3-sulfate], the “absorption into system materials (chip material, perfusion manifold material)” value in data set [4] is given as “Minimal absorption”.
As for `CN(C)C(=N)N=C(N)N` [Metformin], the “efflux from the vascular channel to the luminal channel” value in data set [5] (day 8, S1 chip, 30 μL/hr, time-dependent) is “significant efflux”.
Consider `Nc1ccc(C(=O)NCC(=O)O)cc1` [PAH, p-aminohippuric acid], for which the efflux ratio in data set [6] is 1.37; in the data set “in vitro” (Kidney-Chip Efflux Ratio), 4.84; in the data set “in vitro” (efflux ratio), 2.4 to 2.7. For the same molecule, in [1], the “predicted clearance value as % of clinical value” is recorded as 72%. Further, the “mass balance: compound loss (inlet/outlet) in chip system” value in data set [2] is given as “No significant PAH loss”. Further, the “active transport (B-A versus A-B transport)” value in data set [2] was “significant active transport”. Besides, the “PAH loss (BI-BO)” value in [2] (bottom channel) fell in the range of 20 to 40 µg/mL. In addition, the “PHA transport (TO/BO)” value in [2] (low flow) is “about 20%”. Further, the recovery in [3] is about 100%.
Turning to `CCCN(CCC)S(=O)(=O)c1ccc(C(=O)O)cc1` [Probenecid], in data set [2] (S1 chip, inhibitor incubated 3 hours, trend, statistically not significant), the “reduction of creatinine secretion” value is on record as 10%.
Take `CC[N+](CC)(CC)CC` [TEA, Tetraethylammonium]: the “Transwell Efflux Ratio” value in data set [7] is recorded as 1.11+/−0.06. Moreover, the “Kidney-Chip Efflux Ratio” value in data set [5] (no inhibitor) is 6.95+/−0.60. In addition, the efflux ratio in [5] (transport studies comparing different flow rates, conditions tested) was over 2.
Consider `CC[C@@]1(O)C(=O)OCc2c1cc1n(c2=O)Cc2cc3c(CN(C)C)c(O)ccc3nc2-1` [Topotecan], for which the “absorption into system materials (chip material, perfusion manifold material)” value in data set [4] is on record as “Minimal absorption”.
The same measure, in the same setting: as for `CCCCC(=O)N(Cc1ccc(-c2ccccc2-c2nnn[nH]2)cc1)[C@H](C(=O)O)C(C)C` [Valsartan], the entry is “Minimal absorption”.
Consider Gentamicin, for which, in data set [8] (10 mM, 48 hours), the “LDH in medium effluent” value is recorded as “significant increase”, the “N-acetyl-beta-(D)-glucosaminidase activity (NAG) in medium effluent” value was “significant increases”, the TUNEL assay entry was “significant DNA damage” and the “active caspase-3 in cells lysates” value is on record as “increase”. Also, in data set [8] (10 mM, 48 hours), the “microscopic analysis of the proximal tubular epithelium” value is “structural damage” and the “reactive oxygen species (ROS)” value is on record as “significant increases”. For the same molecule, the Morphology result in data set [8] (dosing at Day 7 for 24 h, Gentamicin 10 mM, Cisplatin 100 μM) was “Damaged”.
For the molecule inulin, the “Inulin leakage into the basal channel” value with PT Kidney-Chip is “no significant inulin leakage”.

The values above are taken from patent US11841361B2, “Microfluidic proximal tubule kidney-on-chip” (EMULATE, INC., priority 2019, dated 2023).
